Values after ≈ are worked out from the molar mass of the structure shown. Values belong to the compound of their own block, whether it stands above or below them.
Legend:
[1] = Selectivity for Porphyromonas gingivalis arginine gingipain over cathepsin B
[2] = Selectivity for Porphyromonas gingivalis arginine gingipain over trypsin
[3] = Inhibition of Porphyromonas gingivalis arginine gingipain
[4] = molecular target: T1, Trifunctional purine biosynthetic protein adenosine-3 (Homo sapiens, UniProt P22102); assay: Inhibition of human glycinamide ribonucleotide transformylase
T1 sequence (P22102 whole entry): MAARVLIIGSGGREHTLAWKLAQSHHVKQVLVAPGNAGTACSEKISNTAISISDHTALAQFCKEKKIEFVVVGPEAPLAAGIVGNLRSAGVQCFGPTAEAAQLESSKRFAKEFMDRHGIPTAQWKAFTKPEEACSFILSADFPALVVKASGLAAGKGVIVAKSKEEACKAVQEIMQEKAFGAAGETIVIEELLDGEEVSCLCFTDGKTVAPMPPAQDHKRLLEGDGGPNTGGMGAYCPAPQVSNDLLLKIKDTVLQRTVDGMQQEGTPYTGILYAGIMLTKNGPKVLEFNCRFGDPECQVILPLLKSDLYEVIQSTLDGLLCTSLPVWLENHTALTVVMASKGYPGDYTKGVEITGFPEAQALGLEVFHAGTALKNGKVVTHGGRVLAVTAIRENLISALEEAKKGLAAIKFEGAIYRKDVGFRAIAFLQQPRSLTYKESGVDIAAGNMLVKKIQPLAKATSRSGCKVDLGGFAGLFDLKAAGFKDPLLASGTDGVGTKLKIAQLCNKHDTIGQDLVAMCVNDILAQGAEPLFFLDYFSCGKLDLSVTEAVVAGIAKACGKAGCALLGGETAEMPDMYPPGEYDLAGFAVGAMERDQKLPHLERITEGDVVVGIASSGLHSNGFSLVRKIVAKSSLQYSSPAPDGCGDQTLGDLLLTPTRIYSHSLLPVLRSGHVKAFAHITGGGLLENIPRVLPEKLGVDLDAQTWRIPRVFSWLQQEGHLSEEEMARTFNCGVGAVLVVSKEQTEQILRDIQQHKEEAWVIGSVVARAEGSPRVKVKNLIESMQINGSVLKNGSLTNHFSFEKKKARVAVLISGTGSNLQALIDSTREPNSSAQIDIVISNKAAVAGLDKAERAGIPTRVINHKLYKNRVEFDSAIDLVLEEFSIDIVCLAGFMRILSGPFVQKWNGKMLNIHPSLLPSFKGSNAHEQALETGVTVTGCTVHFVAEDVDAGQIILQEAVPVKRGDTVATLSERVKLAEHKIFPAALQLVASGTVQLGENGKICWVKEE

[5] = Inhibition of Escherichia coli glycinamide ribonucleotide transformylase
[6] = molecular target: Bifunctional purine biosynthesis protein ATIC (Homo sapiens, UniProt P31939); assay: Inhibition of human aminoimidazole carboxamide transformylase
[7] = molecular target: Prothrombin (Homo sapiens, UniProt P00734); assay: Inhibition of human alpha-thrombin
[8] = molecular target: Coagulation factor VII (Homo sapiens, UniProt P08709); assay: Inhibition of human factor 7a
[9] = molecular target: Coagulation factor X (Homo sapiens, UniProt P00742); assay: Inhibition of human factor 10a
[10] = molecular target: Coagulation factor XI (Homo sapiens, UniProt P03951)
[11] = molecular target: Beta-lactamase (Enterobacter cloacae, UniProt P05364); assay: Inhibition of Enterobacter cloacae beta lactamase
[12] = tested on: PC-3; assay: Growth inhibition of human PC3 cells; format: functional, cell-based
[13] = Inhibition of trypsin-like activity of human 20S proteasome
[14] = Inhibition of post-glutamyl peptide hydrolase-like activity of human 20S proteasome
[15] = tested on: Osteoclast; assay: Inhibition of bovine bone resorption in rabbit osteoclasts; format: functional, cell-based; settings: Oryctolagus cuniculus
[16] = tested on: Trypanosoma brucei rhodesiense; assay: microbe, parasite or virus in culture; settings: read-out: ED50
[17] = tested on: Trypanosoma cruzi; assay: microbe, parasite or virus in culture; settings: read-out: ED50
[18] = tested on: Mus musculus; assay: Analgesic activity in iv dosed mouse; format: functional
[19] = molecular target: Proline iminopeptidase (Serratia marcescens, UniProt O32449); assay: Inhibition of Serratia marcescens prolyl aminopeptidase
Sequence of Proline iminopeptidase (O32449 whole entry): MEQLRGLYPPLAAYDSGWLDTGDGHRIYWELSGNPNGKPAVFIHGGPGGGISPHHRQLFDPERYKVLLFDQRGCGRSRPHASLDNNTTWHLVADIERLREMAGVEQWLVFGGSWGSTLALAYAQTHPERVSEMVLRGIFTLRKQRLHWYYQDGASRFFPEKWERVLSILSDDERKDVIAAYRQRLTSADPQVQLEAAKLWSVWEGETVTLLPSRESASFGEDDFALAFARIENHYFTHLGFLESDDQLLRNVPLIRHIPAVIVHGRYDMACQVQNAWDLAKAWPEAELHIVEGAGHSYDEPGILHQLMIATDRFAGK

Sequence of Coagulation factor X (P00742 41-179 limits assumed): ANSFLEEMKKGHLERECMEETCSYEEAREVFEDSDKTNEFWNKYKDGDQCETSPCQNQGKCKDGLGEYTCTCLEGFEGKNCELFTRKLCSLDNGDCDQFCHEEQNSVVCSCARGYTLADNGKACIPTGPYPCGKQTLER
Sequence of Coagulation factor X (P00742 235-488 limits assumed): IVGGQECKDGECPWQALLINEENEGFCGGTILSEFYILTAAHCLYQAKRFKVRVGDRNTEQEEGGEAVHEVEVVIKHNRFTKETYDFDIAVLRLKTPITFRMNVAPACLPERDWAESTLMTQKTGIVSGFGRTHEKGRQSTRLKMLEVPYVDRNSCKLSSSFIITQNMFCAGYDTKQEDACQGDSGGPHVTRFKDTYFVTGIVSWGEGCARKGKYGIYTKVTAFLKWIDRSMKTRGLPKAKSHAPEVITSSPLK
Sequence of Coagulation factor XI (P03951 19-387 limits assumed): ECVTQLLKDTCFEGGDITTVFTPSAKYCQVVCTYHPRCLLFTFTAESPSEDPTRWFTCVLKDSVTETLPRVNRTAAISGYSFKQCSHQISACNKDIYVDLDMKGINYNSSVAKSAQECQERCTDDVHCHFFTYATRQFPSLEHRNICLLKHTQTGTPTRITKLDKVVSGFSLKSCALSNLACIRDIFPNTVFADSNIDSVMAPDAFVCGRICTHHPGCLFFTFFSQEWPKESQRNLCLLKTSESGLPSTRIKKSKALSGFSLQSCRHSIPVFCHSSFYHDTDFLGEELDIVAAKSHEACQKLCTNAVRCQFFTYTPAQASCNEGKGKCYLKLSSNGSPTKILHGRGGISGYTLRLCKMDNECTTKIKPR
Sequence of Coagulation factor XI (P03951 388-625 limits assumed): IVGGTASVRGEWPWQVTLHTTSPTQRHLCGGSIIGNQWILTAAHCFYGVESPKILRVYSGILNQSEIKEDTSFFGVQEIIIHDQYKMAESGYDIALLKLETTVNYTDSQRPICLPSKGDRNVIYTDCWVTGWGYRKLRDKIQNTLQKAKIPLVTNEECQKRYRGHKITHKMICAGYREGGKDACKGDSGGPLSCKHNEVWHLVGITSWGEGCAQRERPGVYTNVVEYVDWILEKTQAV
Sequence of Coagulation factor VII (P08709 61-212 limits assumed): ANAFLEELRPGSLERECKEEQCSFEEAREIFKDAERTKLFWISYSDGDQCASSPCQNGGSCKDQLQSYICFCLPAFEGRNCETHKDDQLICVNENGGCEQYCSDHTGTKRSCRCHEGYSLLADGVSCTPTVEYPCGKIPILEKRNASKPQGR
Sequence of Coagulation factor VII (P08709 213-466 limits assumed): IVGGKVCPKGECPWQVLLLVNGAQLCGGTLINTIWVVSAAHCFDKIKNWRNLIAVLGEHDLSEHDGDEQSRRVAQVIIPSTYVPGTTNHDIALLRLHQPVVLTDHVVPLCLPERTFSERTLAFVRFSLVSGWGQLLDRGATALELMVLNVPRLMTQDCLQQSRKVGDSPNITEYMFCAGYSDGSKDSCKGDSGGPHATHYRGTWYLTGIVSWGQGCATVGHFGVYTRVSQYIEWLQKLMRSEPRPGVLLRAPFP
Sequence of Bifunctional purine biosynthesis protein ATIC (P31939 whole entry): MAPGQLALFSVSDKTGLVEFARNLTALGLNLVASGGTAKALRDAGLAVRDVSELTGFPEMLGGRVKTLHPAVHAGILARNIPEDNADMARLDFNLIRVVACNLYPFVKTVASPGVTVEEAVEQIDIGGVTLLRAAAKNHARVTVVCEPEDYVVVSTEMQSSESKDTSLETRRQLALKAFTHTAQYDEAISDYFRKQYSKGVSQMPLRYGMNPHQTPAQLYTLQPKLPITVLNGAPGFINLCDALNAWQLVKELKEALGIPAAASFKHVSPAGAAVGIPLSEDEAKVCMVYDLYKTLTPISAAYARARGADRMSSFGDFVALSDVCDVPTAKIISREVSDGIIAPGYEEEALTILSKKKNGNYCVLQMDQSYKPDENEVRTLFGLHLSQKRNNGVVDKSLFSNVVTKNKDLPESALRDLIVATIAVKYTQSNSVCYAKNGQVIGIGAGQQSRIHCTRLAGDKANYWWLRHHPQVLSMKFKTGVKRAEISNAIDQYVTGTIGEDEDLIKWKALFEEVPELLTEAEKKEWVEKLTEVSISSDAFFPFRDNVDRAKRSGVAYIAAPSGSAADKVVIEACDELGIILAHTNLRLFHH
Sequence of Beta-lactamase (P05364 whole entry): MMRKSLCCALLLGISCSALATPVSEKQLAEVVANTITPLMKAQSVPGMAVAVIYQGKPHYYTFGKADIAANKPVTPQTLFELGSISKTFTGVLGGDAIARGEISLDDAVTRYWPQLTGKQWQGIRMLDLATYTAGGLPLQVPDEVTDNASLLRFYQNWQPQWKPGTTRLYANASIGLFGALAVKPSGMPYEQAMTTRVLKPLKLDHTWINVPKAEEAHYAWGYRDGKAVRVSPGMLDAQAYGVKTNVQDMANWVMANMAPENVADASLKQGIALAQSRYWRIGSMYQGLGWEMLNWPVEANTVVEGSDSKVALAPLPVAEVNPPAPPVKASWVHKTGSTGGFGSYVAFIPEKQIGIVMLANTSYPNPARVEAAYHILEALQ

Compound: NCCCC[C@H](NC(=O)C1CCCN(C(=O)CCc2ccccc2)C1)C(=O)c1nc2ccccc2s1 (stereo partly specified)
Selectivity ratio [1]: 120000
Selectivity ratio [2]: 30
Ki [3]: 0.9 nM

Compound: CC(C)[C@H](NC(=O)[C@H](CC1CCCCC1)NC(=O)N[C@H](C)c1ccc(Br)cc1)C(=O)N[C@@H](CCCNC(=N)N)C(=O)c1nccs1
IC50 [10]: 10 nM
IC50 [7]: 980 nM
IC50 [9]: 2700 nM

Compound: CCC[C@H](NC(=O)C1(NC(=O)c2ccc(N(C)C)cc2)CCCCC1)C(=O)c1nnc(-c2ccco2)o1
IC50 [15]: 130 nM

Compound: O=C(CCCCCCc1ccccc1)c1ncc(-c2ccccn2)o1
ED50 [18]: 1.9 mg/kg

Compound: CC(C)(C)c1nnc(C(=O)[C@@H]2CCCN2)o1
Ki [19]: 500 nM

Second part, led by results:

Ki [4]: > 100000 nM
Ki [6]: > 100000 nM
Compound: Nc1nc(N)c(CCCCCC(=O)c2nc3ccccc3o2)c(=O)[nH]1
Ki [5]: 15000 nM

IC50 [7]: 19000 nM
IC50 [8]: 300 nM
IC50 [9]: 380 nM
Compound: CC[C@H](C)[C@H](NC(=O)[C@@H](Cc1ccccc1)NS(=O)(=O)Cc1ccccc1)C(=O)N[C@@H](CCCN=C(N)N)C(=O)c1nccs1

Ki [11]: 110000 nM
Compound: O=C(Cc1ccccc1)NCC(=O)c1nc(C(=O)O)cs1

IC50 [12]: 200 nM
Ki [13]: > 300000 nM
Ki [14]: > 900000 nM
Compound: Cc1ccc(S(=O)(=O)N[C@@H](CC(=O)NCC(C)(C)C)C(=O)N[C@@H](C)C(=O)N[C@@H](CC(C)C)C(=O)c2nnc(-c3ccccc3)o2)cc1

EC50 [16]: 2200 µg/mL (≈ 4.65 mM)
EC50 [17]: 6700 µg/mL (≈ 14.1 mM)
Compound: O=C(c1cc(-c2ccccc2)on1)[C@@H]1CCCN1C(=O)[C@@H]1CCCN1C(=O)OCc1ccccc1

From ChEMBL document CHEMBL1143211, “Inhibitors of proteases and amide hydrolases that employ an alpha-ketoheterocycle as a key enabling functionality” (Bioorg Med Chem, 2008)
